Experimental data published in US20220194938A1, “NOVEL COMPOUNDS AND PHARMACEUTICAL COMPOSITIONS THEREOF FOR THE TREATMENT OF INFLAMMATORY DISORDERS” (GALAPAGOS NV, priority 2019, published 2022).
Like-named read-outs stand apart in the source and are kept apart here.

Experiments:
[1] = test system: Collagen Induced Arthritis (CIA); assay: Mouse collagen induced arthritis (CIA) model; assay type: in vivo; conditions: mouse CIA, 3, 10 and 30 mg/kg b.i.d., versus disease vehicle group
Description: 5.1. CIA Model 5.1.1. Materials Completed Freund's adjuvant (CFA) and incomplete Freund's adjuvant (IFA) were purchased from Difco. Bovine collagen type II (CII), lipopolysaccharide (LPS), and Enbrel was obtained from Chondrex (Isle d'Abeau, France); Sigma (P4252, L'Isle d'Abeau, France), […] (25 mg injectable syringe, France) Acros Organics (Palo Alto, Calif.), respectively. All other reagents used were of reagent grade and all solvents were of analytical grade. 5.1.2. Animals DBA1/J mice (male, 7-8 weeks old) were obtained from Charles River Laboratories (France). Mice were kept on a 12 h light/dark cycle (07 h00-19 h00). Temperature was maintained at 22° C., and food and water were provided ad libitum. 5.1.3. Collagen Induced Arthritis (CIA) One day before the experiment, CII solution (2 mg/mL) was prepared with 0.05 M acetic acid and stored at 4° C. Just before the immunization, equal volumes of adjuvant (IFA) and CII were mixed by a homogenizer in a pre-cooled glass bottle in an ice water bath. Extra adjuvant and prolonged homogenization may be required if an emulsion was not formed. […] Body weight and clinical score, were recorded twice a week. […] Clinical Assessment of Arthritis Arthritis is scored according to the method of (Khachigian 2006; Lin et al. 2007; Nishida et al. 2004). […] Results For each readout, mean and sem were calculated. […]

THP-1-Lucia NFκB cells = assay: NFκB-reporter assay in THP1-Lucia NFκB cells (LPS, IL-1β, TNFα trigger); assay type: cell-based; conditions: 24 h
Source text: This assay was used to evaluate the IRAK4 selectivity and potency of the compounds of the invention upon IRAK4 dependent (LPS and IL-1β) and independent triggering (TNFα), in a THP1-Lucia NFκB reporter assay.
THP-1-Lucia NFκB cells (Invivogen—5, rue Jean Rodier 31400 Toulouse France—cat #thp1-nfkb) were cultivated as recommended by the supplier using split cycles each cycle comprising a succession of thawing/expansion/seeding. The data reported were generated using cells having between 3 to 9 cycles. On the day of the experiment THP-1-Lucia NFκB cells were counted and seeded at a density of 1,000,000 cells/mL in culture medium (RPMI 1640 (Gibco, Cat #52400-025)+10% FBS (Sigma, Cat #F7524-500ML)+1% P/S (Gibco, Cat #15140-122)) by pipetting 54 μL/well in a 384 well plate. Thereafter, 6 μL of a 10× trigger solution was added to all wells, at final concentrations of 2.5, 10 and 3 ng/mL for respectively LPS, TNFα and IL-1β, except for ‘no trigger wells’ where 6 μL culture medium only was added.
After trigger addition, compounds were added with a digital compound dispenser, in an 8-points concentration range, using 3-fold dilution steps and normalizing the final DMSO concentration to 0.2% DMSO in all wells.
After 24 h incubation at 37° C., 5% CO2, 40 μL of supernatant was collected per well and transferred to a new 384 well plate that was then stored at −20° C. until further use.
For the readout, supernatant samples were thawed on ice and 5 μL sample was transferred from each well to a new 384-well plate. 20 μL of Quanti-Luc solution (Quanti-Luc powder (Invivogen, Cat #rep-glc1) dissolved in 25 mL sterile water as indicated by the manufacturer) was added to each well after which luminescence was immediately measured on an Envision instrument.
To measure the inhibition of LPS/TNFα/IL-1β-induced NFκB-reporter activity, percentage inhibition (PIN) values were calculated for all concentrations tested, compared to controls. […]

EC50 (THP-1-Lucia NFκB cells; IL-1β 3 ng/mL, read-out: IL-1β driven NFκB-reporter activity, average pEC50 (converted)) [nM]	EC50 (THP-1-Lucia NFκB cells; LPS 2.5 ng/mL, read-out: LPS driven NFκB-reporter activity, average pEC50 (converted)) [nM]	SMILES	effect on bone erosion Larsen Score [1]	TNFα mediated NFκB-reporter activity (THP-1-Lucia NFκB cells; TNFα 10 ng/mL)
–	–	CNC(=O)c1cc2nc(CCC(C)(C)O)cn2cc1NC(=O)c1cccc(C(F)(F)F)n1 [Compound 2, 2-(3-hydroxy-3-methyl-butyl)-N-methyl-6-[[6-(trifluoromethyl)pyridine-2-carbonyl]amino]imidazo[1,2-a]pyridine-7-carboxamide]	statistically significant effect	–
63.1	316	CCOc1c(NC(=O)c2cccn(C3CC3)c2=O)cn2cc(CCS(C)(=O)=O)nc2c1F [Compound 39, 1-cyclopropyl-N-[7-ethoxy-8-fluoro-2-(2-methylsulfonylethyl)imidazo[1,2-a]pyridin-6-yl]-2-oxo-pyridine-3-carboxamide]	–	no activity was observed
